Experiments:
Assay in all cases: AUC of viability dose-response curve (% viability x log10 dose units); higher = less sensitive
Conditions in all cases: 48 h
[1] = test system: NOMO1
In short: (§1)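 Leukemia cells adapted to each medium (500 or 1000 cells/well, 1536-well plates) were exposed to library compounds in DMSO for 48 h at 37°C at 11 threefold doses, 47 μM to 0.79 nM. Luminescence by CellTiter-Glo One was normalised per plate to DMSO and cell-free wells, then fitted with a four-parameter log-logistic curve on log10 dose. Curves above full viability were scaled and quality-control failures removed before area under the curve was integrated by trapezoidal rule.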

[2] = test system: P12-Ichikawa
In short: as §1

[3] = test system: SEM cells
In short: as §1

[4] = RPMI 5 mM glucose + 10% dialyzed FBS

Row | SMILES | AUC of viability dose-response curve ([1]; HPLM + 10% dialyzed FBS) | AUC of viability dose-response curve ([1]; RPMI 5 mM glucose + 10% FBS) | AUC of viability dose-response curve [1, 4] | AUC of viability dose-response curve ([2]; HPLM + 10% dialyzed FBS) | AUC of viability dose-response curve ([2]; RPMI 5 mM glucose + 10% FBS) | AUC of viability dose-response curve [2, 4] | AUC of viability dose-response curve ([3]; HPLM + 10% dialyzed FBS) | AUC of viability dose-response curve ([3]; RPMI 5 mM glucose + 10% FBS) | AUC of viability dose-response curve [3, 4]
1 | COC\1=C(/OC)C(=O)\C(=C(C)/C1=O)CCCCCCCCCCO | 461 | 464 | 468 | 471 | 456 | 459 | 460 | 471 | 456
2 | CNc1nc(Nc2ccc(C(=O)N3CCOCC3)cc2OC)ncc1Cl | 434 | 463 | 450 | 448 | 454 | 466 | 434 | 456 | 466
3 | CC[C@H](NC1=C2N=C[NH]C2=NC=N1)C/3=N/C4=C(C(=CC=C4)F)C(=O)N3C5=CC=CC=C5 | 433 | 450 | 432 | 436 | 395 | 401 | 411 | 430 | 442
4 | O=C(c1ccc(F)cc1)N1CCC[C@H](c2nc(-c3ccc(F)cc3)no2)C1 | 467 | 453 | 472 | 460 | 459 | 459 | 453 | 455 | 475
5 | Cc1cnn(C)c1C(=O)Nc1cc(Nc2ccc3c(/C=C/c4ccccn4)n[nH]c3c2)ccc1F | 422 | 460 | 454 | 424 | 449 | 441 | 343 | 311 | 330
6 | C[C@]12CC[C@H]3[C@@H](CC[C@H]4NC(=O)\C=C/[C@]34C)[C@@H]1CC[C@@H]2C(=O)NC5=CC(=CC=C5C(F)(F)F)C(F)(F)F | 435 | 440 | 461 | 456 | 455 | 452 | 432 | 456 | 442
7 | COc1ccc([S+](=O)([O-])N(C(C)=O)c2ccccc2/C=C/c2cc[n+]([O-])cc2)cc1 | 351 | 352 | 356 | 353 | 345 | 370 | 352 | 342 | 351
8 | C[C@](Cc1c[nH]c2ccccc12)(NC(=O)OC1C2CC3CC(C2)CC1C3)C(=O)NC[C@H](NC(=O)CCC(=O)O)c1ccccc1 (some centres undefined) | 455 | 413 | 435 | 469 | 461 | 456 | 447 | 433 | 430
9 | Cc1nn(Cc2ccccc2Cl)c(C)c1CN(C)CC(O)COc1ccc(Cl)cc1 (centres undefined) | 445 | 428 | 436 | 463 | 440 | 435 | 436 | 432 | 430
10 | CC(C)CNc1ccnc(NCc2csc(-c3ccccc3)n2)n1 | 414 | 456 | 446 | 440 | 436 | 442 | 447 | 447 | 458
11 | C[C@@]12C(=O)OC(=O)[C@@]1(C)C1CCC2O1 | 391 | 371 | 392 | 407 | 405 | 407 | 400 | 392 | 377
12 | CCC[S+]([O-])c1ccc2[nH]c(NC(=O)OC)nc2c1 (centres undefined) | 429 | 420 | 384 | 409 | 393 | 405 | 409 | 399 | 411
13 | COc1ccc([C@@H]2CC(=O)c3c(O)cc(O[C@@H]4O[C@H](CO[C@@H]5O[C@@H](C)[C@H](O)[C@@H](O)[C@H]5O)[C@@H](O)[C@H](O)[C@H]4O)cc3O2)cc1O | 477 | 457 | 468 | 467 | 468 | 473 | 465 | 469 | 469
14 | O=C(Nc1cc(Cl)cc2c1[nH]c1cnccc12)c1cccnc1 | 467 | 477 | 471 | 471 | 461 | 457 | 468 | 452 | 437
15 | CN1CCN(C2=Nc3cc(Cl)ccc3Nc3ccccc32)CC1 | 463 | 471 | 470 | 477 | 472 | 471 | 459 | 428 | 452
16 | C[C@H](NC(=O)c1sccc1OCc1ccc(Cl)cc1)c1ccccc1 | 382 | 388 | 394 | 407 | 398 | 407 | 408 | 449 | 450

From the supplement of paper PMC11451515
